Holding throughout (assay type): in vivo
Assay [1] has as its system female mice fed a high fat diet for 20 weeks. Briefly: GBR 12909 and FA, alone and combined, 14 days in high fat diet mice (Example 9). Particulars: GBR 12909 10 mg/kg, FA 15 mg/kg, FIG. 11. As for the experimental part:
Female mice at 4 weeks of age were fed a high fat diet for 20 weeks to induce diabetes and insulin resistance and continued on such diet while treated for 14 days with either GBR 12909 (10 mg/kg), FA (15 mg/kg), GBR 12909 (10 mg/kg) plus FA (15 mg/kg), or vehicle and sacrified after 14 days of treatment for the analyses of body fat, blood glucose, plasma insulin, and plasma nitric oxide levels. The composite of body fat store level, blood glucose and plasma insulin was reduced the greatest in the GBR/FA group and by a magnitude more than additive of the individual GBR and FA groups combined. Only the GBR/FA group normalized plasma insulin levels. […] This effect was not observed with either GBR or FA treatments alone. Also, there was no desensitization to this dopamine enhancing treatment on this body weight reduction effect as is observed with dopamine D2 receptor agonists (FIG. 15).

Assay [2] has as its system male mice fed a high fat diet. Briefly: GBR versus bupropion in high fat diet mice (Example 11). As for the experimental part: The effect of increasing central dopamine neuronal activity versus increasing central dopamine plus norepinephirne neuronal activity on body fat, blood glucose, plasma insulin, and insulin sensitivity was studied in male mice fed a high fat diet from 4 weeks of age until 24 weeks of age. These mice were maintained on this high fat diet while treated with either GBR (20 mg/kg) (a selective dopamine reuptake inhibitor) or bupropion (20 mg/kg) (a dopamine and norepinpehrine reuptake inhibitor) at doses that approximate their 50% maximal effective dose for these functions in vivo in rodents.

The subject of assay [3] is high fat fed, hypertensive SHR rats. Briefly: Quinelorane and fusaric acid, alone and combined, in high fat fed hypertensive SHR rats (Example 5). Particulars: SHR rats on high fat diet, Q 0.075 mg/kg, FA 12.5 mg/kg. As for the experimental part:
Male SHR rats were maintained on 14 hour daily photoperiods and fed a high fat diet (60% of energy from fat; 5.24 kcal/gram weight) for 3 weeks and then divided into different groups and treated with either quinelorane (Q; a dopamine D2/D3 mixed receptor agonist) (0.075 mg/kg), fusaric acid (FA; a dopamine beta hydroxylase inhibitor) (12.5 mg/kg), quinelorane (0.075 mg/kg) plus FA (Q/FA) (12.5 mg/kg), or vehicle at 13 hours after light onset for 17 days. The doses of Q and FA were set at less than half maximal to effect central dopamine receptor binding functions and dopamine beta hydroxylase activity, respectively. […] Blood pressure measurements were taken at 14 days of treatment and animals were sacrificed at 18 days of treatment for analyses of body fat and humoral factors and metabolites. […] Respecting blood glucose, although both Q and FA reduced glucose level relative to vehicle, only the Q/FA regimen normalized blood glucose in these animals relative to vehicle (FIG. 6).

Assay [4] relates to obese, diabetic female ob/ob mice. The assay is described as follows: Fusaric acid and SKF 38393, alone and combined, 14 days in ob/ob mice (Example 4). Particulars: fusaric acid 15 mg/kg, SKF 38393 10 mg/kg, once daily 14 days, day 15, controls 380+/−30. As for the experimental part: Fusaric acid is a dopamine beta hydroxylase inhibitor that reduces noradrenaline synthesis in noradrenergic neurons. It is not present in dopaminergic neurons and thus exerts no such effect there. SKF38393 is a post-synaptic dopamine D1 receptor agonist with no marked influence on noradrenergic neurons. A study was conducted to determine the interactive effects of fusaric acid plus SKF 38393 on body fat store levels, and blood glucose and plasma triglyceride levels in ob/ob mice. The ob/ob mouse is hyperphagic, obese, insulin resistant, diabeteic and dyslipidemic due to the absence of functional leptin as a result of a mutation in this gene.
Obese, diabetic female ob/ob mice (body weight of approximately 33 g) maintained on 14 hour daily photoperiods, housed one per cage and allowed to feed ad libitum were randomized to once daily treatment with either fusaric acid (15 mg/kg; n=6-8), SKF 38393 (10 mg/kg; n=6-8), both fusaric acid (15 mg/kg) and SKF 38393 (10 mg/kg) (n=6-8), or vehicle (control group; n=6-8) for a 14 day period. On the fifteenth day of the study and approximately 24 hours after the final treatment animals were sacrificed and blood samples were obtained for the analyses of blood glucose, plasma free fatty acid and triglyceride levels. […]

`Cl.Cl.Fc1ccc(C(OCCN2CCN(CCCc3ccccc3)CC2)c2ccc(F)cc2)cc1` [GBR 12909, 1-(2-[bis(4-Fluorophenyl)methoxy]ethyl)-4-(3-phenylpropyl)piperazine dihydrochloride]: in assay [1], the blood glucose level result is on record as “no significant effect”. For the same compound, the reducing plasma insulin result in assay [2] (GBR 20 mg/kg versus bupropion 20 mg/kg, equal dose) was “much more effective”. Further, the body fat result in assay [2] (GBR 20 mg/kg, compared to vehicle and bupropion 20 mg/kg, FIG. 17) is “significantly reduced”.

On to `CCCN1CCC[C@@H]2Cc3nc(N)ncc3C[C@H]21` [Q], for which the “change from baseline body weight (weight loss)” value in assay [3] (at 13 hours after light onset for 17 days, FIGS. 1 and 2) was “regained weight loss to baseline values by treatment end”.

Turning to `Cl.Oc1cc2c(cc1O)C(c1ccccc1)CNCC2` (stereo not drawn) [SKF 38393, 1-phenyl-7,8-dihydroxy-2,3,4,5-tetrahydro-1H-3-benzazepine hydrochloride], the blood glucose in assay [4] was found to be 290 ± 55 mg/dL.

With `CCCCc1ccc(C(=O)O)nc1` [fusaric acid, 5-butyl-2-pyridinecarboxylic acid], the “plasma C-reactive protein levels” value in assay [3] (17 days, relative to vehicle) is recorded as “no significant effect”.

For the origin of these results see patent publication US20130274246A1, “Therapeutic Treatment for Metabolic Syndrome, Type 2 Diabetes, Obesity, or Prediabetes” (priority 2010, published 2013).
